# Patent publication US20070059632A1, “Method of manufacturing a semiconductor device” (priority 2003, published 2007)
# Legend:
# Type in all cases: physicochemical
# [1] = Solubility of compound in safety solvent; details: safety solvent (PGMEA or EL) at 23° C.
# Experimental: (1) Solubility of Compound in Safety Solvent
# Each compound was tested for its solubility in safety solvent (PGMEA or EL) at 23° C. The solubility was rated as “A” when dissolved in an amount of 5% by weight or more, “B” when dissolved in an amount of 0.1% by weight or more but less than 5% by weight, and “C” when not dissolved in an amount of 0.1% by weight or more.
# [2] = Inhibition of dissolution in alkali developing solution; design: key: A: no change was visually noticed in the state of film; C: the surface was roughened or a part of the film was lost because of dissolution; details: resist film immersed in 2.38% aqueous solution of TMAH for 3 min
# Experimental: (3) Inhibition of Dissolution in Alkali Developing Solution
# The resist film formed in the evaluation 2 was immersed in a developing solution (2.38% aqueous solution of TMAH) for 3 min. The results were rated as “A” when no change was visually noticed in the state of film, and “C” when the surface was roughened or a part of the film was lost because of dissolution.
# [3] = Alkali developability; design: key: A: the resist film dissolved completely and disappeared; C: the resist film remained not dissolved even in a slight amount; details: tested on the corresponding polyphenol compound A before introducing the acid-dissociating group; film immersed in 2.38% aqueous TMAH for 10 s
# Experimental: (5) Alkali Developability
# A polyphenol compound A corresponding to each compound before introducing the acid-dissociating functional group was examined for its developability with an alkali developing solution.
# A 10% by weight solution of each polyphenol compound A in PGMEA was spin-coated using a spin coater, to form a resist film of about 0.2 μm thick. After heating on a hot plate for 3 min at 110° C., the resist film was immersed in a 2.38% aqueous solution of TMAH for 10 s. The results were rated as “A” when the resist film dissolved completely and disappeared, and “C” when the resist film remained not dissolved even in a slight amount.
structure (smiles),measurement,setting,value
Cc1cc(C(C)(c2ccc(OC(=O)OC(C)(C)C)c(C)c2)c2ccc3ccccc3c2)ccc1OC(=O)OC(C)(C)C [Compound 5-1],(1) Solubility in safety solvent,[1],A (dissolved in an amount of 5% by weight or more)
same,(3) Inhibition of dissolution in developing solution,[2],A
same,(5) Alkali developability,[3],A
Cc1cc(C(C)(c2ccc(OC(=O)OC(C)(C)C)c(C)c2)c2ccc3ccccc3c2)ccc1O (stereo not drawn) [Compound 5-2],(1) Solubility in safety solvent,[1],A (dissolved in an amount of 5% by weight or more)
same,(3) Inhibition of dissolution in developing solution,[2],A
same,(5) Alkali developability,[3],A
CC(C)(C)OC(=O)Cc1cc(C(C)(c2ccc(OC(=O)OC(C)(C)C)c(OC(=O)OC(C)(C)C)c2)c2ccc3ccccc3c2)ccc1OC(=O)OC(C)(C)C (stereo not drawn) [Compound 5-3],(1) Solubility in safety solvent,[1],A (dissolved in an amount of 5% by weight or more)
same,(3) Inhibition of dissolution in developing solution,[2],A
same,(5) Alkali developability,[3],A
CCOC(C)Oc1ccc(C(C)(c2ccc(O)c(C)c2)c2ccc3ccccc3c2)cc1C (stereo not drawn) [Compound 5-4],(1) Solubility in safety solvent,[1],A (dissolved in an amount of 5% by weight or more)
same,(3) Inhibition of dissolution in developing solution,[2],A
same,(5) Alkali developability,[3],A
Cc1cc(C(C)(c2ccc(OC(C)OC3CCCCC3)c(C)c2)c2ccc3ccccc3c2)ccc1O (stereo not drawn) [Compound 5-5],(1) Solubility in safety solvent,[1],A (dissolved in an amount of 5% by weight or more)
same,(3) Inhibition of dissolution in developing solution,[2],A
same,(5) Alkali developability,[3],A
Cc1cc(C(C)(c2ccc(OC3CCCCO3)c(C)c2)c2ccc3ccccc3c2)ccc1O (stereo not drawn) [Compound 5-6],(1) Solubility in safety solvent,[1],A (dissolved in an amount of 5% by weight or more)
same,(3) Inhibition of dissolution in developing solution,[2],A
same,(5) Alkali developability,[3],A
CCOC(C)Oc1ccc(C(C)(c2ccc(O)c(C3CCCCC3)c2)c2ccc3ccccc3c2)cc1C1CCCCC1 (stereo not drawn) [Compound 5-7],(1) Solubility in safety solvent,[1],A (dissolved in an amount of 5% by weight or more)
same,(3) Inhibition of dissolution in developing solution,[2],A
same,(5) Alkali developability,[3],A
CC(C)(C)OC(=O)Oc1ccc(C(C)(c2ccc(O)cc2)c2ccc3ccccc3c2)cc1 (stereo not drawn) [Compound 5-8],(1) Solubility in safety solvent,[1],A (dissolved in an amount of 5% by weight or more)
same,(3) Inhibition of dissolution in developing solution,[2],A
same,(5) Alkali developability,[3],A
CC(C)(C)OC(=O)Oc1ccc(C(c2ccc(O)cc2)c2cccc3ccccc23)cc1 (stereo not drawn) [Compound 5-9],(1) Solubility in safety solvent,[1],A (dissolved in an amount of 5% by weight or more)
same,(3) Inhibition of dissolution in developing solution,[2],A
same,(5) Alkali developability,[3],A
Oc1ccc(C(c2ccc(OC3CCCCO3)cc2)c2ccc(-c3ccccc3)cc2)cc1 (stereo not drawn) [Compound 6-1],(1) Solubility in safety solvent,[1],A (dissolved in an amount of 5% by weight or more)
same,(3) Inhibition of dissolution in developing solution,[2],A
same,(5) Alkali developability,[3],A
CC(C)(C)OC(=O)Oc1ccc(C2(c3ccc(OC(=O)OC(C)(C)C)c(OC(=O)OC(C)(C)C)c3)c3ccccc3-c3ccccc32)cc1OC(=O)OC(C)(C)C [Compound 7-1],(1) Solubility in safety solvent,[1],B (dissolved in an amount of 0.1% by weight or more but less than 5% by weight)
same,(3) Inhibition of dissolution in developing solution,[2],A
CC(C)(C)OC(=O)Oc1cc(C2(c3ccc(OC(=O)OC(C)(C)C)c(OC(=O)OC(C)(C)C)c3)c3ccccc3-c3ccccc32)ccc1O [Compound 7-2],(1) Solubility in safety solvent,[1],A (dissolved in an amount of 5% by weight or more)
same,(3) Inhibition of dissolution in developing solution,[2],A
same,(5) Alkali developability,[3],A
CC(C)(C)OC(=O)Cc1cc(C2(c3cc(OC(=O)OC(C)(C)C)c(OC(=O)OC(C)(C)C)c(OC(=O)OC(C)(C)C)c3)c3ccccc3-c3ccccc32)cc(OC(=O)OC(C)(C)C)c1OC(=O)OC(C)(C)C [Compound 7-3],(1) Solubility in safety solvent,[1],A (dissolved in an amount of 5% by weight or more)
same,(3) Inhibition of dissolution in developing solution,[2],A
same,(5) Alkali developability,[3],A
Oc1ccc(C2(c3ccc(OC4CCCCO4)cc3)c3ccccc3-c3ccccc32)cc1 (stereo not drawn) [Compound 7-4],(1) Solubility in safety solvent,[1],A (dissolved in an amount of 5% by weight or more)
same,(3) Inhibition of dissolution in developing solution,[2],A
same,(5) Alkali developability,[3],A
O=C1c2ccccc2C(c2ccc(O)cc2)(c2ccc(OC3CCCCO3)cc2)c2ccccc21 (stereo not drawn) [Compound 7-5],(1) Solubility in safety solvent,[1],A (dissolved in an amount of 5% by weight or more)
same,(3) Inhibition of dissolution in developing solution,[2],A
same,(5) Alkali developability,[3],A
Oc1ccc(C2(c3ccc(OC4CCCCO4)cc3)Cc3cccc4cccc2c34)cc1 (stereo not drawn) [Compound 8-1],(1) Solubility in safety solvent,[1],A (dissolved in an amount of 5% by weight or more)
same,(3) Inhibition of dissolution in developing solution,[2],A
same,(5) Alkali developability,[3],A
O=C1c2cccc3cccc(c23)C1(c1ccc(O)cc1)c1ccc(OC2CCCCO2)cc1 (stereo not drawn) [Compound 8-2],(1) Solubility in safety solvent,[1],A (dissolved in an amount of 5% by weight or more)
same,(3) Inhibition of dissolution in developing solution,[2],A
same,(5) Alkali developability,[3],A
CCOC(C)Oc1ccc(C2(c3ccc(O)c(C4CCCCC4)c3)Cc3cccc4cccc2c34)cc1C1CCCCC1 (stereo not drawn) [Compound 8-3],(1) Solubility in safety solvent,[1],A (dissolved in an amount of 5% by weight or more)
same,(3) Inhibition of dissolution in developing solution,[2],A
same,(5) Alkali developability,[3],A
CC(C)(C)OC(=O)Oc1ccc(C2(c3ccc(OC(=O)OC(C)(C)C)cc3)C(=O)c3cccc4cccc2c34)cc1 [Compound 8-4],(1) Solubility in safety solvent,[1],A (dissolved in an amount of 5% by weight or more)
same,(3) Inhibition of dissolution in developing solution,[2],A
same,(5) Alkali developability,[3],A
CCOC(C)Oc1ccc(C2(c3ccc(O)c(-c4ccccc4)c3)Cc3cccc4cccc2c34)cc1-c1ccccc1 (stereo not drawn) [Compound 8-5],(1) Solubility in safety solvent,[1],A (dissolved in an amount of 5% by weight or more)
same,(3) Inhibition of dissolution in developing solution,[2],A
same,(5) Alkali developability,[3],A
CC1(c2ccc3ccccc3c2)c2ccc(O)cc2Oc2cc(OC3CCCCC3)ccc21 (stereo not drawn) [Compound 9-1],(1) Solubility in safety solvent,[1],A (dissolved in an amount of 5% by weight or more)
same,(3) Inhibition of dissolution in developing solution,[2],A
same,(5) Alkali developability,[3],A
"CC(C)(C)OC(=O)Oc1ccc(C(C)(C)c2ccc(OC(=O)OC(C)(C)C)cc2)cc1 [Compound 14-1, reference compound]",(1) Solubility in safety solvent,[1],C (not dissolved in an amount of 0.1% by weight or more)
same,(5) Alkali developability,[3],A
"CC(C)(C)OC(=O)Oc1ccc(C2(c3ccc(OC(=O)OC(C)(C)C)cc3)CCCCC2)cc1 [Compound 14-2, reference compound]",(1) Solubility in safety solvent,[1],C (not dissolved in an amount of 0.1% by weight or more)
same,(5) Alkali developability,[3],A
